Here are results for 1 compound from patent publication US11401243B2, “Quinoline derived small molecule inhibitors of nicotinamide N-methyltransferase (NNMT) and uses thereof” (priority 2017, dated 2022).

Data set [1] relates to diet-induced obese (DIO) mice. It is filed as in vivo. Here is the method:
17-week old, male DIO C57Bl/6 mice that have been fed high-fat diet (HFD) for 11 weeks (starting at week 6) were purchased from Jackson Labs (Jackson Laboratory; Bar Harbour, Me., USA). Mice were initially group housed (three/cage) and allowed to acclimate to the colony environment maintained at a constant temperature (21-23° C.) and humidity (40-50%) on a 12-hour light-dark cycle (lights on 0600-1800 h). Upon arrival, mice were continued to be fed HFD (Open Source Diets formula D12451 from Research Diets Inc.; New Brunswick, N.J., USA), containing 45% energy from fat. Water was available ad libitum.
All experiments were carried out in accordance with the Guide for the Care and Use of Laboratory Animals and with approval from the Institutional Animal Care and Use Committee at the University of Texas Medical Branch. Following acclimation for seven days, mice were single-housed and maintained on HFD for 4 additional weeks. Mice were intermittently handled, with body weights and food intake (hopper weights) measured 2-3 times per week. […] Mice in the vehicle cohort received three subcutaneous (SC) saline (1 ml/kg) injections/day (˜0930, 1330, 1730 h) and mice in the treatment cohort received three SC injections of the NNMT inhibitor 5-amino-1MQ at a dose of 20 mg/kg/injection for a total dose of […] of the parent compound (calculated according to free weight) for 11 days. […] Body weight and food intake were measured every other day. On day 12, mice were subjected to a 4 h fast period, then deeply anesthetized using isoflurane and trunk blood was collected by decapitation. Plasma was separated from every sample and the samples were submitted to Texas A&M Veterinary Medical Diagnostic Laboratory (TVMDL; College Station, Tex., USA) for plasma lipid-panel measurements (total cholesterol and triglycerides). Triglycerides values were not included for analysis since the measurements were confounded by sample hemolysis that interfered with the triglyceride reagent in the assay. Epididymal fat pads (epididymal white adipose tissue; EWAT) were excised from every mouse, weighed, and fixed in 10% buffered formalin for further processing.
Formalin-fixed EWAT samples were paraffin embedded, sectioned ([…]), and stained with hematoxylin and eosin (H&E). Images were obtained at 20× magnification using a light microscope (Leica DM LB) and digitally photographed for automated image analysis. Images were analyzed using the “Adiposoft” plug-in software in ImageJ (NIH). […]. Minimum and maximum diameter parameters were assigned to identify appropriate cells for the automated adipocyte area calculations, and cells along the boundary of the images were excluded from analyses. Three to five images/sample were analyzed, with automated analysis confirmed by visual inspection. Images corresponding to each sample were averaged to obtain the mean adipocyte area (μm2) per sample and combined to calculate group mean values for control (vehicle-treated EWAT samples) and treatment (NNMT inhibitor-treated EWAT samples) cohorts.

A short description of data set [2]: Bi-directional permeability assay with Caco-2 cells. The following applies: human. For orientation: Caco-2 cells form a polarised layer with tight junctions and transporters.
The test system of data set [3] is Caco-2 cells. Described as above. The following applies: Caco-2; listed as 5-amino-1MQ.
Data set [4] relates to NNMT activity in 3T3-L1 pre-adipocytes and differentiated adipocytes. The data set is described as follows: Quantitative measurement of NNMT reaction product 1-MNA in cultured cells (LC/MS/MS). It is filed as cell-based. The following applies: for intracellular levels of 1-MNA: 30 μM. Here is the method: Differentiation of 3T3-L1 pre-adipocytes. […] Briefly, standard culture media was supplemented with scheduled addition of adipogenic agents [3-isobutyl-1methyl xanthine (IBMX), Sigma Aldrich; MO, USA), dexamethasone (Sigma Aldrich; MO, USA), insulin (Gibco Life Technologies Inc.; Grand Island, N.Y., USA)] over 10 days to promote differentiation of 3T3-L1 fibroblasts into adipocytes; a combination of 1 mM IBMX, 1 μM dexamethasone, and 10 μg/ml of insulin in media were added to fully confluent 3T3-L1 fibroblasts for three days (days 0-3) to initiate differentiation. At day 3, the media was replaced with culture media supplemented with insulin (10 μg/ml). After day 6, cells were maintained in culture media until described experiments were begun (days 8-10).
Cellular 1-MNA concentrations were determined using an ultra-sensitive high-resolution AB Sciex 6500 Q-trap mass spectrometer coupled to an Agilent 1260 ultra-high pressure liquid chromatography (LC/MS/MS) system. Using multiple reaction monitoring (MRM) positive ion mode, the 1-MNA NNMT reaction product was quantified from peak area ratios using AB Sciex Analyst and MultiQuant 2.1 software and the parent precursor and Q3 masses set to m/z 137.1 and 94.1, respectively. Fragment ions at m/z of 92.1 and 77.9 were additionally used for the detection and confirmation of 1-MNA, respectively. […]. To determine the effect of NNMT inhibitor on NNMT activity in the pre-adipocytes and differentiated adipocytes (8×10^4 cells/well seeded prior to beginning differentiation), cells were treated with 30 μM inhibitor for 24 h. Similarly, to compare the relative effects of multiple NNMT inhibitors on NNMT activity in cultured adipocytes, differentiated adipocytes in 6-well plates were treated with 10 μM test compound for 24 h. Following treatment, media was replaced with 80% (v/v) methanol (cooled to −80° C.) containing 500 nmol 6-chloronicotinamide (6-CN) as an internal standard (IS) to extract cellular metabolites. Adherent cells were scrapped, then centrifuged at 4° C. and 13000 g for 15 min, and the resulting supernatants processed using established protocols. […]. Data were subsequently normalized to the IS peak area and transformed as % control values for cross-sample comparisons. […] Choice of inhibitor concentrations and time period was chosen based on the results from the MTT studies.

Data set [5] relates to 3T3-L1 pre-adipocytes cells. Put plainly: MTT cell viability assay. The data set is classed as cell-based. On the procedure: Cells were treated for 24 h with 0.1-600 μM NNMT inhibitors in cell culture media. A 24 h time point was chosen based on a previous report of using this time period for transfecting or treating 3T3-L1 cells with NNMT anti-sense oligonucleotides or a small molecule NNMT product inhibitor (1-MNA), respectively, for phenotypic measures. MTT (3-(4,5-dimethylthiazol-2-yl)-2,5-diphenyltetrazolium bromide) (ATCC; Manassas, Va., USA) was added to each well and assayed according to the manufacturer's instructions. Absorbance corresponding to the amount of formazan dye produced by treated cells was normalized to that produced by control (untreated) cells to calculate % viable cells in the treated samples.

[6] abbreviates: DIO mice, 20 mg/kg SC t.i.d., 11 days.

Entries after “also recorded” stand apart in the source; their conditions may differ. Bounds are passed on as bounds.

As a reminder, the efflux ratio is a quotient of directional permeabilities that is used to spot active efflux. In general, Papp A→B refers to how fast a substance crosses the layer from the apical side. A higher Papp A→B goes with ready permeation. As usually defined, the Papp B→A is how fast a substance crosses the layer from the basolateral side. As a reminder, the EC50 is the concentration that produces a half-maximal response. As for `C[n+]1cccc2c(N)cccc21` [1j, 5-amino-1-methylquinolin-1-ium iodide], in data set [1] (setting [6]), the “decrease in mass of EWAT compared with control DIO mice” value is on record as about 35%, the “total cumulative food intake” value stood at 26.2 ± 1.4 g, the “weight loss at end of treatment” value worked out at 2.0 ± 0.6 g and the “weight loss from baseline measures” value is listed as about 5.1%. Also, the “body weight over treatment period compared to controls (in words)” value in data set [1] (DIO mice, 20 mg/kg SC three times daily, 11 days) was “progressive loss of body weight”. In addition, the “decrease in adipocyte size compared to control DIO mice” value in data set [1] (EWAT histology, 20 mg/kg SC t.i.d., 11 days) is recorded as over 30%. Further, the “decrease in adipocyte volume compared to control DIO mice” value in data set [1] (EWAT histology, data not shown) was over 40%. For the same compound, in data set [1] (mouse, in vivo, 60 mg/kg/day), the “tolerability in dose escalation study” value was “well tolerated with no observable adverse effects”. The “total cholesterol levels lower relative to control DIO mice” value in data set [1] (plasma, 4 h fast, day 12) was about 30%. In data set [2] (Caco-2), the efflux ratio at 2 h, 10 μM amounted to 1.33. Also, in data set [2] (Caco-2, pH 7.4), the Papp A→B at 2 h, 10 μM was 34.2 ×10⁻⁶ cm/s and the Papp B→A at 2 h, 10 μM was found to be 45.2 ×10⁻⁶ cm/s. Further, the “Classification (active transport / efflux)” value in data set [3] is given as “no detectable efflux; also recorded: High permeability”. Also, the “1-MNA levels in differentiated adipocytes relative to control” value in data set [4] (10 μM, 24 h) is listed as “significantly decreased”. In addition, the EC50 in data set [4] (Mus musculus, 3T3-L1, 24 h, 0.3-60 μM, 3-parameter sigmoidal fit, read-out: EC50 for inhibition of NNMT (intracellular 1-MNA) in fully differentiated adipocytes) was determined as 2300 nM. In data set [4] (adipocytes, 24 h), the “intracellular levels of 1-MNA” value is listed as “significant reduction”. Further, in data set [4] (inhibitor concentrations 10-60 μM), the “relative intracellular 1-MNA levels, % of level in untreated adipocytes” value is about 40%. Moreover, the “intracellular levels of 1-MNA” value in data set [4] (pre-adipocytes, 24 h) was “significant reduction”. Also, the cell viability entry in data set [5] (3T3-L1 pre-adipocytes, 10 μM, 24 h) is “did not impact cell viability”. The cytotoxicity in data set [5] (3T3-L1 pre-adipocytes, 600 μM (highest concentration tested), 24 h) is listed as about 40%. Further, the “cytotoxicity relative to untreated cells” value in data set [5] (3T3-L1 pre-adipocytes, 100-300 μM, 24 h) is recorded as “modest cytotoxicity”. Moreover, the “3T3-L1 cell viability compared to untreated” value in data set [5] (highest tested concentration (0.1-60 μM range)) is “only slightly reduced”.
